Measurements as given in patent publication US8022103B2, “Ester prodrugs of prostratin and related phorbol compounds” (Salvia Sciences, Inc., priority 2005, dated 2011).
Values after ≈ are worked out from the molar mass of the structure shown. Where two headings read alike, the source gives them in different places.

How the values were obtained:
[1] = system: HIV-1IIIB; assay: HIV-1 antiviral cytoprotection assay in CEM-SS cells; type: cell-based
Method: Antiviral efficacy of SA-101A and SA-101B compounds were evaluated in an HIV 1 antiviral cytoprotection assay using CEM-SS cells and the laboratory adapted HIV 1IIIB virus strain.
Compound preparation. Compounds SA-101A and SA-101B were prepared in powder form and solubilized in DMSO and stored at −20° C. AZT (Sigma), solubilized in sterile H2O, was used as a positive antiviral control and was stored at 4° C. The compounds were evaluated at a high test concentration of 500 μg/mL. AZT was run in parallel at a concentration of 500 nM.
Cell Preparation. CEM-SS cells were passaged in T-75 flasks prior to use in the antiviral assay. On the day preceding the assay, the cells were split 1:2 to assure they were in an exponential growth phase at the time of infection. Total cell and viability quantification was performed using a hemacytometer and trypan blue exclusion. Cell viability was greater than 95% for the cells to be utilized in the assay. […]
Virus Preparation. […] The virus was resuspended and diluted into tissue culture medium such that the amount of virus added to each well in a volume of 50 μl was the amount determined to give approximately 90% cell killing at 6 days post-infection.
MTS Staining for Cell Viability. At assay termination, the assay plates were stained with the soluble tetrazolium-based dye MTS (Cell Titer Reagent Promega) to determine cell viability and quantify compound toxicity. […]

[2] = system: Hepatitis B Virus; assay: HepG2 2.2.15 antiviral assay (HBV DNA, TaqMan PCR); type: cell-based, Hepatitis B (HBV); details: HepG2 2.2.15 cells
Method: Compounds SA-101A and SA-101B were evaluated for effect on Hepatitis B Virus replications using a cell culture based HBV replication system.
Compound preparation. The compounds were prepared in powder form (˜1 mg) and solubilized in DMSO prior to use. Compound 3TC was used as positive antiviral control.
HepG2 2.2.15 Antiviral Assay. The assay developed is similar to that described ion the literature (Korba et al., 1991, Antiviral Res. 15: 217-228; Korba et al., 1992, Antiviral Res. 19: 55-70) with the exception that viral DNA detection and quantification have been improved and simplified (Buckwold et al., 2004, Antiviral Res. 61(1): 57-62). Briefly, HepG2-2.2.15 cells are plated in 96-well microtiter plates. […] Six days following the initial administration of the test compound, the cell culture supernatant is collected, treated with pronase and DNAse and then used in a real-time quantitative TaqMan PCR assay. The PCR-amplified HBV DNA is detected in real-time by monitoring increases in fluorescence signals that result from the exonucleolytic degradation of a quenched fluorescent probe molecule that hybridizes to the amplified HBV DNA. […] Antiviral activity is calculated from the reduction in HBV DNA levels (IC50). […] The therapeutic index (TI) is calculated as TC50/IC50.

`CC(=O)O[C@@]12C[C@@H](C)[C@@]3(O)[C@@H](C=C(CO)C[C@]4(O)C(=O)C(C)=C[C@@H]34)[C@@H]1C2(C)C` [SA-101A, 12-deoxyphorbol 13-acetate] was tested, and the IC50 ([1]; Human immunodeficiency virus 1, read-out: IC50) was 0.086 µg/mL (≈ 0.22 µM) and the “EC50 (inhibition of HBV)” value [2] was “did not achieve EC50 values”.
`CC(=O)OC12CC(C)C3(O)C(C=C(COC(=O)CCC(=O)O)CC4(O)C(=O)C(C)=CC43)C1C2(C)C` (stereo not shown) [SA-101B, Prostratin Succinate] was tested, and the IC50 [1] was “did not achieve an IC50 value” and the “EC50 (inhibition of HBV)” value [2] was “did not achieve EC50 values”.
